Experiments:
[1] = target: Neuraminidase (Influenza A virus) (UniProt A5Z252); conditions: Influenza A virus (A/Anhui/1/2005(H5N1)); at 100 µM
[2] = target: Neuraminidase (Influenza A virus) (UniProt A5Z252); conditions: Influenza A virus (A/Anhui/1/2005(H5N1)); at 10 µM
Neuraminidase [3] = target: T1, Neuraminidase (Influenza A virus, UniProt B4URF0); experiment: Inhibition of Influenza A virus A/California/04/2009(H1N1) neuraminidase using MUNANA as substrate preincubated for 5 to 15 mins followed by substrate addition measured after 30 mins by fluorescence assay
T1 sequence (B4URF0 whole entry): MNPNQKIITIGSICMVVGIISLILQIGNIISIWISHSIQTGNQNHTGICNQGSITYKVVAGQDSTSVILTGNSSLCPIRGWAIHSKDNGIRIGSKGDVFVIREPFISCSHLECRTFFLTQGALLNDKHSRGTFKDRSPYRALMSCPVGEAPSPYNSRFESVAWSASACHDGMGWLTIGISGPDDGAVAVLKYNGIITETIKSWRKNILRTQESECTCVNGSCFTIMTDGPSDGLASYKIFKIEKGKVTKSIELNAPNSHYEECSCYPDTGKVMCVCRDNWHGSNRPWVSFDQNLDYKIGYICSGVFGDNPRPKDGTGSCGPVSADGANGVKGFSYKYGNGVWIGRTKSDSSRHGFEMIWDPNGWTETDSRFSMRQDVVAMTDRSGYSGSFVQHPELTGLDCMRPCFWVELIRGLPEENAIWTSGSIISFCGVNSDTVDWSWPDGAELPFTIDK

Neuraminidase [4] = target: Neuraminidase (Influenza A virus, UniProt A5Z252); experiment: Inhibition of Influenza A virus A/Anhui/1/2005(H5N1) neuraminidase using MUNANA as substrate preincubated for 5 to 15 mins followed by substrate addition measured after 30 mins by fluorescence assay
Neuraminidase [5] = target: T1, Neuraminidase; experiment: Inhibition of Influenza A virus A/Anhui/1/2013(H7N9) neuraminidase 150 cavity at 10 uM using MUNANA as substrate preincubated for 5 to 15 mins followed by substrate addition measured after 30 mins by fluorescence assay relative to control

SMILES | inhibition [1] | inhibition [2] | IC50 (Neuraminidase [4]) | also measured
CCC(CC)O[C@@H]1C=C(C(=O)O)C[C@H](NC(=O)[C@H](O)CCc2ccccc2)[C@H]1NC(C)=O | 60.4% | 49.2% | – | –
CCC(CC)O[C@@H]1C=C(C(=O)O)C[C@H](NC(C)=O)[C@H]1NC(C)=O | – | – | 238 nM | IC50 (Neuraminidase [3]): 16.5 nM; IC50 (Neuraminidase [5]): 59.5 nM
CCCCCC(=O)N[C@H]1CC(C(=O)O)=C[C@@H](OC(CC)CC)[C@@H]1NC(C)=O | 33.2% | – | – | –
CCC(CC)O[C@@H]1C=C(C(=O)O)C[C@H](NC(=O)C(F)(F)F)[C@H]1NC(C)=O | – | – | 266 nM | –
CCC(=O)N[C@H]1CC(C(=O)O)=C[C@@H](OC(CC)CC)[C@@H]1NC(C)=O | 84.5% | 47.9% | – | –
CCC(CC)O[C@@H]1C=C(C(=O)O)C[C@H](NC(=O)/C=C/c2ccccc2)[C@H]1NC(C)=O | 50.2% | 14.5% | – | –
CCC(CC)O[C@@H]1C=C(C(=O)O)C[C@H](NC(=O)C(C)C)[C@H]1NC(C)=O | 47.6% | 14.2% | – | –
CCC(CC)O[C@@H]1C=C(C(=O)O)C[C@H](NC(=O)[C@@H](C)N)[C@H]1NC(C)=O | 49.3% | 18.8% | – | –
CCOC(=O)C1=C[C@@H](OC(CC)CC)[C@H](NC(C)=O)[C@@H](N)C1 | 95.5% | 91% | – | –
CCC(CC)O[C@@H]1C=C(C(=O)O)C[C@H](NC(=O)C(F)F)[C@H]1NC(C)=O | – | – | 190 nM | –
CCCCC(=O)N[C@H]1CC(C(=O)O)=C[C@@H](OC(CC)CC)[C@@H]1NC(C)=O | 11.3% | – | – | –
CCC(CC)O[C@@H]1C=C(C(=O)O)C[C@H](NC=O)[C@H]1NC(C)=O | – | – | 1290 nM | –
CCC(CC)O[C@@H]1C=C(C(=O)O)C[C@H](NC(=O)Cc2c[nH]c3ccccc23)[C@H]1NC(C)=O | 47.3% | 12.8% | – | –
CCCC(=O)N[C@H]1CC(C(=O)O)=C[C@@H](OC(CC)CC)[C@@H]1NC(C)=O | 66.8% | 14.7% | – | –
CCC(CC)O[C@@H]1C=C(C(=O)O)C[C@H](NC(=O)CCc2ccccc2)[C@H]1NC(C)=O | 19.1% | – | – | –
CCC(CC)O[C@@H]1C=C(C(=O)O)C[C@H](NC(=O)CN)[C@H]1NC(C)=O | – | – | 2670 nM | –
CCC(CC)O[C@@H]1C=C(C(=O)O)C[C@H](NC(=O)CF)[C@H]1NC(C)=O | – | – | 228 nM | –
CCC(CC)O[C@@H]1C=C(C(=O)O)C[C@H](NC(=O)CCCc2ccccc2)[C@H]1NC(C)=O | 36% | – | – | –
CCC(CC)O[C@@H]1C=C(C(=O)O)C[C@H](NC(=O)Cc2ccc(C)cc2)[C@H]1NC(C)=O | 57.2% | 10% | – | –
C=CC(=O)N[C@H]1CC(C(=O)O)=C[C@@H](OC(CC)CC)[C@@H]1NC(C)=O | – | – | 2980 nM | –
CCC(CC)O[C@@H]1C=C(C(=O)O)C[C@H](NC(=O)CN(C)C)[C@H]1NC(C)=O | 58.2% | 30% | – | –
